Assay results taken from patent publication EP4603105A1, “PHARMACEUTICAL COMPOSITION CONTAINING CYCLIC COMPOUND HAVING SELECTIVE KRAS INHIBITORY EFFECT AGAINST HRAS AND NRAS” (CHUGAI SEIYAKU KABUSHIKI KAISHA, priority 2022, dated 2024).
*1 amine or outer side, *2 acyl side, *3 side chain or, on linkers, in order; H or OH if unused. Where a SMILES comes first, the peptide text is derived from it. Bridges are numbered along the chain shown (N, C = ends). [ ]: non-standard residue; d: D form. The star is where a group is joined. hPhe(3,5-F2-4-CF3) = N[C@@H](CCc1cc(F)c(C(F)(F)F)c(F)c1)C(=O)O; hPhe(3-Cl-4-CF3) = N[C@@H](CCc1ccc(C(F)(F)F)c(Cl)c1)C(=O)O; NPrPhe(4-CF3) = CCCN[C@@H](Cc1ccc(C(F)(F)F)cc1)C(=O)O; X28 = Cc1ccc(C[C@@H](C(=O)[*:2])N(CC2CCCCC2)[*:1])cc1; NPrPhe(4-Me) = CCCN[C@@H](Cc1ccc(C)cc1)C(=O)O; NMeGly(cPent) = CN[C@H](C(=O)O)C1CCCC1; Hyp = O=C(O)[C@@H]1C[C@@H](O)CN1; Gly(N-propargyl) = C#CCNCC(=O)O; NMeD = CN[C@@H](CC(=O)O)C(=O)O; Ac4c(3-oxa) = NC1(C(=O)O)COC1; NMeL = CN[C@@H](CC(C)C)C(=O)O; NEtAla = CCN[C@@H](C)C(=O)O; Morpholide = C1CN(*)CCO1; NMeA = CN[C@@H](C)C(=O)O; Ac5c = NC1(C(=O)O)CCCC1; Aze = O=C(O)[C@@H]1CCN1; Ac4c = NC1(C(=O)O)CCC1; NEtG = CCNCC(=O)O; Sar = CNCC(=O)O

Tests used:
[1] = target: GDP-bound NRAS wild-type protein (Homo sapiens, UniProt P01111); assay: Binding to NRAS by surface plasmon resonance (SPR), KD and KD ratio to KRAS
Outline: (§1)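 Measured at 30°C: SPR with GDP-loaded, E. coli-expressed biotin-Avi RAS captured (~100–300 RU), ascending 75 s compound injections, HBS pH 7.4 with GDP, MgCl2, 4% DMSO. KD from 1:1 fit.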

HRAS wild-type protein = HRAS wild-type protein (Homo sapiens, UniProt P01112); assay: Binding to HRAS by surface plasmon resonance (SPR), KD and KD ratio to KRAS
Outline: as §1

[2] = system: human lung cancer strain NCI-H441; assay type: cell-based
Outline: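 Signal came from […] measured per well once the reagent was added. Beforehand, cells were cultured at 37°C and 5% carbon dioxide on a compound series serially diluted in dimethyl sulfoxide.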

[3] = ratio of KD value for GDP-bound NRAS wild-type protein to KD value for KRAS (SPR)
[4] = ratio of KD value for HRAS wild-type protein to KD value for KRAS (SPR)
[5] = ratio of KD for GDP-bound NRAS wild-type protein to KD for KRAS
[6] = ratio of KD for HRAS wild-type protein to KD for KRAS

Chain of GDP-bound NRAS wild-type protein (P01111 whole entry): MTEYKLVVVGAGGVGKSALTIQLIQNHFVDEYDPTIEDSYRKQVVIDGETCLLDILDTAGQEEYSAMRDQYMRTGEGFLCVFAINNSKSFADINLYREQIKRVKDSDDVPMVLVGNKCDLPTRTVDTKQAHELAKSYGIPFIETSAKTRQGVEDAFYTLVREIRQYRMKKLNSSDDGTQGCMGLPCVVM
Chain of HRAS wild-type protein (P01112 whole entry): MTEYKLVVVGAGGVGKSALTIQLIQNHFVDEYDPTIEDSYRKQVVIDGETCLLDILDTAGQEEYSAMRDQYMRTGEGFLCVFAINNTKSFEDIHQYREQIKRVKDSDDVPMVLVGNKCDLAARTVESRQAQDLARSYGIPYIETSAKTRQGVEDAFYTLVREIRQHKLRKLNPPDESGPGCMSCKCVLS

IC50 [2] [nM]	Compound	NRAS /KRAS [1, 5]	HRAS /KRAS (HRAS wild-type protein; [6])	other results
11.1	C#CCN1CC(=O)N(C)CC(=O)N(CCC)[C@@H](Cc2ccc(C(F)(F)F)cc2)C(=O)N(C)CC(=O)N[C@@H](CCc2ccc(C(F)(F)F)c(Cl)c2)C(=O)N2CCC[C@H]2C(=O)NC2(CCCC2)C(=O)N(C)[C@@H](C2CCCC2)C(=O)N(C)[C@H](C(=O)N2CCOCC2)CC(=O)N(C)[C@@H](CC(C)C)C(=O)N[C@@H]([C@@H](C)CC)C1=O [PP0750] ([NMeL]I[Gly(N-propargyl)][Sar][NPrPhe(4-CF3)][Sar][hPhe(3-Cl-4-CF3)]P[Ac5c][NMeGly(cPent)][NMeD]-Morpholide; lactam N-11)			NRAS /KRAS ([1]; ratio of the KD value with respect to GDP-bound NRAS wild-type protein to the KD value with respect to KRAS): B (a compound having 3 or more and less than 10 is denoted as B); HRAS /KRAS (HRAS wild-type protein; ratio of the KD value with respect to HRAS wild-type protein to the KD value with respect to KRAS): C (A compound having a KD ratio of 0.1 or more and less than 3 is denoted as C)
22.9	CCO[C@@H]1C[C@H]2C(=O)NC3(CC(F)(F)C3)C(=O)N(C)[C@@H](C3CCCC3)C(=O)N(C)[C@H](CC)CC(=O)N(C)[C@@H](CC)C(=O)N[C@@H]([C@@H](C)CC)C(=O)N(C)CC(=O)N(C)[C@H]3C/C=C\CCN(C3=O)[C@@H](Cc3ccc(C(F)(F)F)cc3)C(=O)N(C)CC(=O)N[C@@H](CCc3cc(F)c(C(F)(F)F)c(F)c3)C(=O)N2C1 [PP1627]			NRAS /KRAS [1, 3]: A (a compound having 10 or more and less than 20 is denoted as A); HRAS /KRAS (HRAS wild-type protein; [4]): A (a compound having 10 or more and less than 20 is denoted as A)
39.7	CCCN1C(=O)CN(CC)C(=O)CN(C)C(=O)[C@H]([C@@H](C)CC)NC(=O)[C@H](CC(C)C)N(C)C(=O)C[C@@H](C(=O)N2CCOCC2)N(C)C(=O)[C@H](C2CCCC2)N(C)C(=O)C2(CCCC2)NC(=O)[C@@H]2CCCN2C(=O)[C@H](CCc2ccc(C(F)(F)F)c(Cl)c2)NC(=O)CN(CC)C(=O)[C@@H]1Cc1ccc(C)cc1 [PP0069] ([NMeL]I[Sar][NEtG][NPrPhe(4-Me)][NEtG][hPhe(3-Cl-4-CF3)]P[Ac5c][NMeGly(cPent)][NMeD]-Morpholide; lactam N-11)	C (A compound having a KD ratio of 0.1 or more and less than 3 is denoted as C)	C (A compound having a KD ratio of 0.1 or more and less than 3 is denoted as C)	
27	CCCO[C@@H]1C[C@H]2C(=O)NC3(CC(C)(C)C3)C(=O)N(C)[C@@H](C3CCCC3)C(=O)N(C)[C@H](C(=O)N(C)CC)CC(=O)N(C)[C@H]3CCCc4ccc(cc4)C[C@@H](C(=O)N(C)CC(=O)N[C@@H](CCc4ccc(Cl)c(Cl)c4)C(=O)N2C1)N1CC/C=C\C[C@@H](C1=O)N(C)C(=O)CN(C)C(=O)[C@H]([C@@H](C)CC)NC3=O [PP3089]	B (a compound having 3 or more and less than 10 is denoted as B)	B (a compound having 3 or more and less than 10 is denoted as B)	
980	CCO[C@@H]1C[C@H]2C(=O)NC3(CCC3)C(=O)N(C)[C@@H](C3CCCC3)C(=O)N(C)[C@H](C(=O)N3CCOCC3)CC(=O)N(C)[C@@H](CC(C)C)C(=O)N[C@@H]([C@@H](C)CC)C(=O)N(C)CC(=O)N(C)[C@H]3CC/C=C(/C)CN(C3=O)[C@@H](Cc3ccc(C(F)(F)F)cc3)C(=O)N(C)CC(=O)N[C@@H](CCc3cc(F)c(C(F)(F)F)c(F)c3)C(=O)N2C1 [PP1333]			NRAS /KRAS ([1]; ratio of KD with respect to GDP-bound NRAS wild-type protein to KD with respect to KRAS): C (A compound having a KD ratio of 0.1 or more and less than 3 is denoted as C); HRAS /KRAS (HRAS wild-type protein; ratio of KD with respect to HRAS wild-type protein to KD with respect to KRAS): B (a compound having 3 or more and less than 10 is denoted as B)
2.6	CC[C@H](C)[C@@H]1NC(=O)[C@H](CC2CC2)N(C)C(=O)C[C@@H](C(=O)N(C)CC)N(C)C(=O)[C@H](C2CCCC2)N(C)C(=O)C2(CC(C)(C)C2)NC(=O)[C@@H]2C[C@@H](F)CN2C(=O)[C@H](CCc2cc(F)c(C(F)(F)F)c(F)c2)NC(=O)CN(C)C(=O)[C@H](Cc2ccc(C(F)(F)F)cc2)N2CC/C=C\C[C@@H](C2=O)N(C)C(=O)CN(C)C1=O [PP1570]			NRAS /KRAS [1, 3]: AA (a compound having 20 or more is denoted as AA); HRAS /KRAS (HRAS wild-type protein; [4]): A (a compound having 10 or more and less than 20 is denoted as A)
4.3	CCCN1C(=O)CN(C)C(=O)CN(CC)C(=O)[C@H]([C@@H](C)CC)NC(=O)[C@H](CC(C)C)N(C)C(=O)C[C@@H](C(=O)N2CCOCC2)N(C)C(=O)[C@H](C2CCCC2)N(C)C(=O)C2(CCCC2)NC(=O)[C@@H]2C[C@@H](OC)CN2C(=O)[C@H](CCc2ccc(C(F)(F)F)c(Cl)c2)NC(=O)CN(C)C(=O)[C@@H]1Cc1ccc(C(F)(F)F)cc1 [PP0296] ([NMeL]I[NEtG][Sar][NPrPhe(4-CF3)][Sar][hPhe(3-Cl-4-CF3)][Hyp](Me)[Ac5c][NMeGly(cPent)][NMeD]-Morpholide; lactam N-11)	B (a compound having 3 or more and less than 10 is denoted as B)	C (A compound having a KD ratio of 0.1 or more and less than 3 is denoted as C)	
123	CCCN1C(=O)CN(C)C(=O)CN(C)C(=O)[C@H]([C@@H](C)CC)NC(=O)[C@H](CC(C)C)N(C)C(=O)C[C@@H](C(=O)N2CCOCC2)N(C)C(=O)[C@H](C2CCCC2)N(C)C(=O)C2(COC2)NC(=O)[C@@H]2CCCN2C(=O)[C@H](CCc2cc(F)c(C(F)(F)F)c(F)c2)NC(=O)CN(C)C(=O)[C@@H]1Cc1ccc(C(F)(F)F)cc1 [PP0765] ([NMeL]I[Sar][Sar][NPrPhe(4-CF3)][Sar][hPhe(3,5-F2-4-CF3)]P[Ac4c(3-oxa)][NMeGly(cPent)][NMeD]-Morpholide; lactam N-11)	B (a compound having 3 or more and less than 10 is denoted as B)	C (A compound having a KD ratio of 0.1 or more and less than 3 is denoted as C)	
1.8	CCC[C@H]1C(=O)N[C@@H]([C@@H](C)CC)C(=O)N(C)CC(=O)N(C)[C@H]2C/C=C\CCN(C2=O)[C@@H](Cc2ccc(C(F)(F)F)cc2)C(=O)N(C)CC(=O)N[C@@H](CCc2ccc(C(F)(F)F)c(OC)c2)C(=O)N2C[C@H](OCC)C[C@H]2C(=O)NC2(CC(C)(C)C2)C(=O)N(C)[C@@H](C2CCCC2)C(=O)N(C)[C@H](C(=O)N(C)C)CC(=O)N1C [PP1560]			NRAS /KRAS [1, 3]: A (a compound having 10 or more and less than 20 is denoted as A); HRAS /KRAS (HRAS wild-type protein; [4]): B (a compound having 3 or more and less than 10 is denoted as B)
108	CC[C@H](C)[C@@H]1NC(=O)[C@H](CC(C)C)N(C)C(=O)C[C@@H](C(=O)N2CCOCC2)N(C)C(=O)[C@H](C2CCCC2)N(C)C(=O)C2(CCCC2)NC(=O)[C@@H]2CCCN2C(=O)[C@H](CCc2ccc(C(F)(F)F)c(Cl)c2)NC(=O)CN(C)C(=O)[C@H](Cc2ccc(C)cc2)N(CC2CCCCC2)C(=O)[C@@H]2CCN2C(=O)[C@H](C)N(C)C1=O [PP0085] ([NMeL]I[NMeA][Aze][X28][Sar][hPhe(3-Cl-4-CF3)]P[Ac5c][NMeGly(cPent)][NMeD]-Morpholide; lactam N-11)	C (A compound having a KD ratio of 0.1 or more and less than 3 is denoted as C)	C (A compound having a KD ratio of 0.1 or more and less than 3 is denoted as C)	
55.2	CCC[C@H]1C(=O)N[C@@H]([C@@H](C)CC)C(=O)N(C2CC2)CC(=O)N(C)[C@H]2C/C=C\CCN(C2=O)[C@@H](Cc2ccc(C(F)(F)F)cc2)C(=O)N(C)CC(=O)N[C@@H](CCc2ccc(Cl)c(Cl)c2)C(=O)N2C[C@H](OCC)C[C@H]2C(=O)NC2(CC(C)(C)C2)C(=O)N(C)[C@@H](CC2CC2)C(=O)N(C)[C@H](C(=O)N(C)C)CC(=O)N1C [PP2817]	A (a compound having 10 or more and less than 20 is denoted as A)	A (a compound having 10 or more and less than 20 is denoted as A)	
172	CCCN1C(=O)CN(C)C(=O)CNC(=O)[C@H]([C@@H](C)CC)NC(=O)[C@H](CC(C)C)N(C)C(=O)C[C@@H](C(=O)N2CCOCC2)NC(=O)[C@H](C2CCCC2)N(C)C(=O)C2(CCC2)NC(=O)[C@@H]2CCCN2C(=O)[C@H](CCc2ccc(C(F)(F)F)c(Cl)c2)NC(=O)CN(C)C(=O)[C@@H]1Cc1ccc(C(F)(F)F)cc1 [PP0326] ([NMeL]IG[Sar][NPrPhe(4-CF3)][Sar][hPhe(3-Cl-4-CF3)]P[Ac4c][NMeGly(cPent)]D-Morpholide; lactam N-11)	B (a compound having 3 or more and less than 10 is denoted as B)	B (a compound having 3 or more and less than 10 is denoted as B)	
37.9	CCCN1C(=O)[C@@H]2CCN2C(=O)[C@H](C)N(CC)C(=O)[C@H]([C@@H](C)CC)NC(=O)[C@H](CC(C)C)N(C)C(=O)C[C@@H](C(=O)N2CCOCC2)N(C)C(=O)[C@H](C2CCCC2)N(C)C(=O)C2(CCCC2)NC(=O)[C@@H]2CCCN2C(=O)[C@H](CCc2ccc(C(F)(F)F)c(Cl)c2)NC(=O)CN(C)C(=O)[C@@H]1Cc1ccc(C(F)(F)F)cc1 [PP0152] ([NMeL]I[NEtAla][Aze][NPrPhe(4-CF3)][Sar][hPhe(3-Cl-4-CF3)]P[Ac5c][NMeGly(cPent)][NMeD]-Morpholide; lactam N-11)	C (A compound having a KD ratio of 0.1 or more and less than 3 is denoted as C)	B (a compound having 3 or more and less than 10 is denoted as B)	
46.3	CC[C@H](C)[C@@H]1NC(=O)[C@H](COC)N(C)C(=O)C[C@@H](C(=O)N(C)C)N(C)C(=O)[C@H](C2CCCC2)N(C)C(=O)C2(CC(C)(C)C2)NC(=O)[C@@H]2CCCCN2C(=O)[C@H](CCc2cc(F)c(C(F)(F)F)c(F)c2)NC(=O)CN(C)C(=O)[C@H](Cc2ccc(C(F)(F)F)cc2)N2CC/C=C\C[C@@H](C2=O)N(C)C(=O)CN(C)C1=O [PP2907]	AA (a compound having 20 or more is denoted as AA)	A (a compound having 10 or more and less than 20 is denoted as A)	
